Patent US11730712B2, “Functionalized long-chain hydrocarbon mono- and di-carboxylic acids and derivatives thereof, and their use for the prevention or treatment of disease” (ESPERVITA THERAPEUTICS, INC., priority 2021, dated 2023)
Several values for one entry are separate records, joined by “and”; a condition that tells them apart may be missing. Equal entries are not always repeated.

Columns and labels:
[1] = system: expanded HSPC / megakaryocytes; assay: Platelet production from expanded HSPC cultured into megakaryocytes; type: cell-based; details: added to expanded HSPC at day 0 or day 6, cultured into megakaryocytes for 8 days
Description: Compound I-32 (A) and Compound I-1 (B) were added to expanded HSPC at day 0 (FIGS. 25A-25E) as they were cultured into megakaryocytes for 8 days or at day 6 (FIGS. 25F-25J). CD41a cell count (FIG. 25A), CD41aCd42b+ cell count (FIG. 25B), platelet levels (FIG. 25C), CD41a MFI (FIG. 25D) and CD41a FSC cell size (FIG. 25E) were analyzed at day 0. CD41a cell count (FIG. 25F), CD41aCd42b+ cell count (FIG. 25G), platelet levels (FIG. 25H), CD41a MFI (FIG. 25I) and CD41a FSC cell size (FIG. 25J) were analyzed at day 6.

Hep3B cells [2] = assay: Hep3B cell proliferation; type: cell-based; details: with or without regorafenib (1.5 μM)
Description: FIG. 36 show anti-proliferative effect of illustrative compounds of the invention in Hep3B cells.
Each bar represents the mean±the SEM, n=5. *p<0.03, **p<0.002, ***p<0.0002, ****p<0.0001, One-way ANOVA followed by Tukey's multiple comparison.

Hep3B cells [3] = assay: Drug interaction (combination) in Hep3B cell proliferation; type: cell-based
Description: FIGS. 41A-41B show drug interaction effect of Compound I-32 (FIG. 41A) and Compound I-1 (FIG. 41B) in combination with regorafenib in Hep3B cell proliferation. In FIG. 41A, “1+0.015 (μM)” means 1 μM Compound I-32+0.015 μM regorafenib, etc. In FIG. 41B, “1+0.015 (μM)” means 1 μM Compound I-1+0.015 μM regorafenib, etc.
In FIG. 44A, “1+0.03 (μM)” means 1 μM Compound I-1+0.03 μM sorafenib, etc. […] In FIG. 44B, “1+0.005 (μM)” means 1 μM Compound I-1+0.005 μM lenvatinib, etc. […] In FIG. 44C, “1+0.03 (μM)” means 1 μM Compound I-32+0.03 μM sorafenib, etc. […] In FIG. 44D, “1+0.005 (μM)” means 1 μM Compound I-32+0.005 μM lenvatinib, etc.

mouse kidney = assay: Kidney histology in DEN NASH-HCC mice after 4 weeks of treatment; type: in vivo; set-up: key to Tubular injury score, Average / Tubular mitoses score, Average / Tubular vacuoles score, Average / Interstitial inflammation score, Average / Interstitial fibrosis score, Average / Glomerular score, Average: 0 = not present to 5 = severe, overwhelming change; mean of mice; key to Tubular mitoses score, individual mice / Interstitial inflammation score, individual mice / Interstitial fibrosis score, individual mice / Glomerular score, individual mice / Tubular injury score, individual mice / Tubular vacuoles score, individual mice: 0—not present; 1—minimal, inconspicuous change; 2—slight, noticeable but not a prominent feature; 3—moderate, prominent feature; 4—marked, dominant but not overwhelming feature; 5—severe, overwhelming change; details: for Glomerular score, individual mice / Interstitial fibrosis score, individual mice / Interstitial inflammation score, individual mice / Tubular injury score, individual mice / Tubular mitoses score, individual mice / Tubular vacuoles score, individual mice / Glomerular score, Average / Interstitial fibrosis score, Average / Interstitial inflammation score, Average / Tubular injury score, Average / Tubular mitoses score, Average / Tubular vacuoles score, Average: kidney; for Glomerular score, Average / Interstitial fibrosis score, Average / Interstitial inflammation score, Average / Tubular injury score, Average / Tubular mitoses score, Average / Tubular vacuoles score, Average: 8 mice
Description: Kidney Histology. Following fixation with 10% neutral buffered formalin for 46 hours, kidneys were cleaved longitudinally through hilium and immersed in 70% ethanol. Kidneys were then processed, paraffin embedded, serially sectioned and stained with haematoxylin and eosin (H&E) and Masson's Trichrome (MTC) by the McMaster Immunology Research Centre histology Core Facility. Blinded kidney histological scores for tubular injury, tubular mitoses, tubular vacuoles, interstitial inflammation, interstitial fibrosis, glomerular were assigned by pathologists.
Kidney Histology. […] In Table 15, pathologist's scoring is as follows: 0—not present; 1—minimal, inconspicuous change; 2—slight, noticeable but not a prominent feature; 3—moderate, prominent feature; 4—marked, dominant but not overwhelming feature; 5—severe, overwhelming change.

human ACLY = molecular target: T1, human ACLY (Homo sapiens, UniProt P53396); assay: ATP-citrate lyase (ACLY) enzymatic assay (ADP-Glo); type: biochemical; details: recombinant human ACLY, Run 1-3, read-out: Compound IC50 (M) ACLY
T1 construct: human ACLY (P533%) (Met 1-Met 1101) expressed in Baculovirus-Insect Cells; purchased Sino Biological Inc. 11769-H07B; host or cells: Baculovirus-Insect Cells
Description: ATP citrate lyase was obtained from Sino Biological Inc. Cat #11769-H07B, Lot #LC08DE1701. It was prepared from a DNA sequence encoding the human ACLY (P533%) (Met 1-Met 1101) expressed in Baculovirus-Insect Cells, with a polyhistidine tag at the N-terminus. The recombinant human ACLY consists of 1120 amino acids and has a calculated molecular mass of 123 kDa. It migrates as an approximately 110 kDa band in SDS-PAGE under reducing conditions. The enzyme came as a lyophilized powder in sterile 20 mM Tris, 500 mM NaCl, pH 8.0, 10% glycine. Normally 5%-8% trehalose and mannitol are added as protectants before lyophilization. […]
To detect ADP produced from ACL assay, the ADP-Glo™ assay format from Promega, Madison, Wis., was used, to detect the conversion of ATP to ADP. […] This assay is performed in two steps: i) after the ACL-mediated enzymatic reaction that utilizes ATP and produces ADP, ADP-Glo™ Reagent is added to terminate the kinase reaction and deplete the remaining ATP, and ii) the Kinase Detection Reagent is added to convert ADP to ATP and allow the newly synthesized ATP to be measured using a luciferase/luciferin reaction. The light generated, measured in a luminometer, correlates to the amount of ADP generated in the ACL assay, which is indicative of ACL activity. […]

SMILES	platelet production [1]	effect on proliferation (Hep3B cells [2])	drug interaction effect in combination with lenvatinib (Hep3B cells [3]; at various concentrations)	drug interaction effect in combination with sorafenib (Hep3B cells [3]; at various concentrations)	kidney pathological differences vs Vehicle (mouse kidney)	Glomerular score, individual mice (mouse kidney)	Interstitial fibrosis score, individual mice (mouse kidney)	Interstitial inflammation score, individual mice (mouse kidney)	Tubular injury score, individual mice (mouse kidney)	Tubular mitoses score, individual mice (mouse kidney)	Tubular vacuoles score, individual mice (mouse kidney)	Glomerular score, Average (mouse kidney)	Interstitial fibrosis score, Average (mouse kidney)	Interstitial inflammation score, Average (mouse kidney)	Tubular injury score, Average (mouse kidney)	Tubular mitoses score, Average (mouse kidney)	Tubular vacuoles score, Average (mouse kidney)	IC50 (human ACLY)	drug interaction effect in combination with sorafenib (Hep3B cells [3]; at all tested concentrations)
CC(C)(CCCCc1ccc(CCCCC(C)(C)C(=O)O)cc1)C(=O)O [Compound I-1, 6-[4-(5-carboxy-5-methylhexyl)-phenyl]-2,2-dimethylhexanoic acid]	do not significantly affect	anti-proliferation effect	synergism	synergism	no pathological differences	0 (3×) and 1 (2×) and 0.5 (3×)	1 (4×) and 0.5 (2×) and 0 and 1.5	0 (5×) and 0.5 (3×)	1.5 and 1 and 0.5 (4×) and 0 (2×)	1 and 0 (3×) and 0.5 (4×)	3.5 and 1.5 (3×) and 3 and 0.5 (2×) and 1	0.44	1.0	0.19	0.56	0.38	1.63		
CC(C)(CCCCc1ccc(CCCCC(C)(C)C(=O)SCCNC(=O)CCNC(=O)[C@H](O)C(C)(C)COP(=O)(O)OP(=O)(O)OC[C@H]2O[C@@H](n3cnc4c(N)ncnc43)[C@H](O)[C@@H]2OP(=O)(O)O)cc1)C(=O)O [Compound I-1-CoA, 6-[4-(5-carboxy-5-methylhexyl)-phenyl]-2,2-dimethylhexanoic acid Coenzyme A ester]																		3.34e-06 M and 2.28e-06 M and 2.5e-06 M	
CC(C)(CCCCc1cccc(CCCCC(C)(C)C(=O)O)c1)C(=O)O [Compound I-32, 6-[3-(5-carboxy-5-methylhexyl)-phenyl]-2,2-dimethylhexanoic acid]	do not significantly affect	anti-proliferation effect	synergism		no pathological differences	0 and 0.5 (5×) and 1 (2×)	0.5 (2×) and 1 (3×) and 2 and 1.5 (2×)	0 (3×) and 2.5 and 1 and 1.5 and 0.5 (2×)	0 (3×) and 1.5 (4×) and 1	0 (4×) and 1 (2×) and 0.5 (2×)	0.5 and 3.5 and 1.5 and 3 and 2 and 1 (3×)	0.56	1.13	0.75	0.88	0.38	1.69		synergism
CC(C)(CCCCc1cccc(CCCCC(C)(C)C(=O)SCCNC(=O)CCNC(=O)[C@H](O)C(C)(C)COP(=O)(O)OP(=O)(O)OC[C@H]2O[C@@H](n3cnc4c(N)ncnc43)[C@H](O)[C@@H]2OP(=O)(O)O)c1)C(=O)O [Compound I-32-CoA, 6-[3-(5-Carboxy-5-methylhexyl)-phenyl]-2,2-dimethylhexanoic acid Coenzyme A Ester]																		9.88e-07 M and 1.22e-06 M and 1.44e-06 M	
